In patent publication US11788061B2, “Method for producing mesenchymal stem cells that inhibit proliferation of cancer cells” (priority 2016, dated 2023):

Key:
Format in all cases: cell-based, human
[1] = system: Vit.C-MSCs; experiment: Characteristics of Vit.C-MSCs cultured in aspirin-containing medium (microscope, Luna automated cell counter); settings: aspirin concentration of 1 mM or less, 24 hours
Procedure: The Vit.C-MSCs cultured in a medium containing vitamin C of Example 1 were incubated for 2 days for adherence and stabilization. Then, the Vit.C-MSCs were cultured in fresh RKCM-N medium supplemented with concentrations of 0.1 mM, 0.5 mM, 1 mM and 10 mM of aspirin for 24 hours. The cell morphologies of Vit.C-MSCs by aspirin were monitored with an […] (100× magnification, Leica DMIL) (FIG. 2), and the proliferation rate, viability and cell size were analyzed using a Luna automated cell counter (Logoy) (FIG. 3).

[2] = system: CD marker expression on the stem cell surface; experiment: Surface CD marker expression by FACS, overall statement; settings: 0.1 mM, 0.5 mM and 1 mM of aspirin, 24 hours
Procedure: The Vit.C-MSCs cultured in a medium containing vitamin C were cultured for 2 days for adherence and stabilization, and were cultured in fresh RKCM-N media supplemented with aspirin at concentrations of 0.1 mM, 0.5 mM and 1 mM for 24 hours. The CD marker expression on the stem cell surface in the following Table 2 was compared between two types of MSCs, that is, Vit.C-MSCs and ASP-Vit.C-MSCs cultured in aspirin using FACS.

[3] = system: Vit.C-MSCs; experiment: Evaluation of toxicity of aspirin on Vit.C-MSCs (cck-8); settings: aspirin concentration of 5 mM or less, 24 hours, cck-8 absorbance at 450 nm
Procedure: The Vit.C-MSCs cultured in a medium containing vitamin C of Example 1 were seeded on a 96-well cell culture plate at a concentration of 1×10^4 cells/plate, and then incubated overnight for cell adherence and stabilization. Then, the cells were cultured in a fresh RKCM-N medium, that is, keratinocyte-SFM containing 5% FBS, 2 mM NAC, 0.2 mM ascorbic acid, 0.09 mM calcium, 5 ng/ml rEGF, 5 μg/ml insulin and 74 ng/ml hydrocortisone, supplemented with aspirin in various concentrations of 0.005 mM, 0.001 mM, 0.05 mM, 0.1 mM, 0.5 mM, 1 mM, 5 mM and 10 mM, for 24 hours. A cck-8 (cell counting Kit-8, Dojindo) solution (10 μl/100 μl) was added to each well and reacted for 2 hours, and the absorbance at 450 nm was measured using a plate reader (Lonza).

SMILES: CC(=O)Oc1ccccc1C(=O)O [aspirin]
- cell size of stem cells [1]: did not affect
- morphology of stem cells [1]: did not affect
- proliferation rate of stem cells [1]: did not affect
- viability of stem cells [1]: did not affect
- CD marker expression on the stem cell surface [2]: not changed
- cytotoxicity of Vit.C-MSCs [3]: almost no cytotoxicity
